Laboratory results taken from ChEMBL document CHEMBL3045232, “Inhibition of photophosphorylation and electron transport chain in thylakoids by lasiodiplodin, a natural product from Botryosphaeria rhodina” (J Agric Food Chem, 2007).
Activity calls are given as the source filed them. No cut-off for these calls is given here.

Tests used:
[1] = system: Spinacia oleracea; assay: Inhibition of ATP sythesis in freshly lysed Spinacia oleracea (spinach) chloroplasts; type: functional, organism-based
[2] = system: Spinacia oleracea; assay: Inhibition of thylakoid electron transport chain in intact chloroplasts of Spinacia oleracea (spinach) leaves assessed as inhibition of uncoupled PS2 electron transport from […] to DCPIP at 200 uM relative to control; details: values are per cent of control
[3] = target: T1, Chloroplast coupling factor 1 (Spinacia oleracea) (UniProt P00825+P06453+P69447+P06451+P05435+P31853+P06450+P11402+P00833); assay: Inhibition of Mg2+ ATPase activity of coupling factor 1 in chloroplasts of Spinacia oleracea (spinach) leaves at 50 uM; type: protein-complex assay; details: values are per cent of control
[4] = system: Spinacia oleracea; assay: Inhibition of thylakoid electron transport chain in intact chloroplasts of Spinacia oleracea (spinach) leaves assessed as inhibition of uncoupled PS2 electron transport from […] to DCPIP at 100 uM relative to control; details: values are per cent of control
[5] = system: Spinacia oleracea; assay: Inhibition of ATP sythesis in freshly lysed Spinacia oleracea (spinach) chloroplasts at 150 uM; type: functional, organism-based
[6] = target: T1, Chloroplast coupling factor 1 (Spinacia oleracea); assay: Inhibition of Ca2+ ATPase activity of coupling factor 1 in chloroplasts of Spinacia oleracea (spinach) leaves at 150 uM; type: protein-complex assay
[7] = target: T1, Chloroplast coupling factor 1 (Spinacia oleracea); assay: Inhibition of Ca2+ ATPase activity of coupling factor 1 in chloroplasts of Spinacia oleracea (spinach) leaves at 50 uM; type: protein-complex assay
[8] = target: T1, Chloroplast coupling factor 1 (Spinacia oleracea); assay: Inhibition of H+ ATPase activity of coupling factor 1 in chloroplasts of Spinacia oleracea (spinach) leaves at 150 uM; type: protein-complex assay
[9] = system: Spinacia oleracea; assay: Inhibition of thylakoid electron transport chain in intact chloroplasts of Spinacia oleracea (spinach) leaves assessed as inhibition of uncoupled PS2 electron transport from […] to DCPIP at 300 uM relative to control; details: values are per cent of control
[10] = target: T1, Chloroplast coupling factor 1 (Spinacia oleracea); assay: Inhibition of H+ ATPase activity of coupling factor 1 in chloroplasts of Spinacia oleracea (spinach) leaves at 200 uM; type: protein-complex assay
[11] = target: T1, Chloroplast coupling factor 1 (Spinacia oleracea); assay: Inhibition of H+ ATPase activity of coupling factor 1 in chloroplasts of Spinacia oleracea (spinach) leaves at 50 uM; type: protein-complex assay
[12] = system: Spinacia oleracea; assay: Induction of Chlorophyll a fluorescence induction curve in freshly lysed chloroplasts of Spinacia oleracea (spinach) at 10 uM; type: functional, organism-based
[13] = system: Spinacia oleracea; assay: Induction of Chlorophyll a fluorescence induction curve in freshly lysed chloroplasts of Spinacia oleracea (spinach) at 300 uM; type: functional, organism-based
[14] = system: Spinacia oleracea; assay: Inhibition of thylakoid electron transport chain in intact chloroplasts of Spinacia oleracea (spinach) leaves assessed as inhibition of uncoupled PS2 electron transport from water to SiM at 200 uM relative to control; details: values are per cent of control
[15] = system: Spinacia oleracea; assay: In vitro inhibition of photophosphorylation in intact chloroplasts of Spinacia oleracea (spinach) leaves assessed as basal electron transport from water to methylviologen; type: functional
[16] = system: Spinacia oleracea; assay: In vitro inhibition of photophosphorylation in intact chloroplasts of Spinacia oleracea (spinach) leaves assessed as inhibition of uncoupled electron transport from water to methylviologen at 300 uM; type: functional
[17] = target: T1, Chloroplast coupling factor 1 (Spinacia oleracea); assay: Inhibition of Ca2+ ATPase activity of coupling factor 1 in chloroplasts of Spinacia oleracea (spinach) leaves at 25 uM; type: protein-complex assay
[18] = system: Spinacia oleracea; assay: In vitro inhibition of photophosphorylation in intact chloroplasts of Spinacia oleracea (spinach) leaves assessed as phosphorylating nonyclic electron transport from water to methylviologen; type: functional
[19] = target: T1, Chloroplast coupling factor 1 (Spinacia oleracea); assay: Inhibition of Mg2+ ATPase activity of coupling factor 1 in chloroplasts of Spinacia oleracea leaves at 25 uM; type: protein-complex assay; details: values are per cent of control
[20] = target: T1, Chloroplast coupling factor 1 (Spinacia oleracea); assay: Inhibition of Mg2+ ATPase activity of coupling factor 1 in chloroplasts of Spinacia oleracea (spinach) leaves at 150 uM; type: protein-complex assay; details: values are per cent of control
[21] = system: Spinacia oleracea; assay: Inhibition of thylakoid electron transport chain in intact chloroplasts of Spinacia oleracea (spinach) leaves assessed as inhibition of uncoupled PS2 electron transport from water to SiM at 400 uM relative to control; details: values are per cent of control
[22] = system: Spinacia oleracea; assay: Inhibition of thylakoid electron transport chain in intact chloroplasts of Spinacia oleracea (spinach) leaves assessed as inhibition of uncoupled PS2 electron transport from water to SiM at 100 uM relative to control; details: values are per cent of control
[23] = system: Spinacia oleracea; assay: Inhibition of thylakoid electron transport chain in intact chloroplasts of Spinacia oleracea (spinach) leaves assessed as inhibition of uncoupled PS2 electron transport from water to SiM at 300 uM relative to control; details: values are per cent of control

CC(C)[C@@H](C)/C=C/[C@@H](C)[C@H]1CC[C@H]2C3=CC=C4C[C@@H](O)CC[C@]4(C)[C@H]3CC[C@]12C
I50 [1]: inactive

OCCc1ccc(O)cc1
I50 [1]: inactive

COc1cc(O)cc2c1C(=O)O[C@@H](C)CCCCCCC2 [LASIODIPLODIN]
residual activity [2]: 75%
residual activity [3]: 54.5%
residual activity [4]: 87%
inhibition [5]: 100%
inhibition [6]: 84.1%
inhibition [7]: 87.5%
inhibition [8]: 98.5%
residual activity [9]: 27%
inhibition [10]: 97.7%
inhibition [11]: 95%
Activity [12]: Active
Activity [13]: Active
residual activity [14]: 70%
inhibition [15]: Active
inhibition [16]: 100%
IC50 ([1]; read-out: I50): 35.6 µM
inhibition [17]: 95.6%
inhibition [18]: Active
residual activity [19]: 62.3%
residual activity [20]: 49.4%
residual activity [21]: 0%
residual activity [22]: 80%
residual activity [23]: 40%

O=c1[nH]cnc2c1ncn2[C@@H]1O[C@H](CO)[C@@H](O)[C@H]1O
I50 [1]: inactive
